Source: patent publication US4973545A, “Photographic couplers with aryloxysilyl groups” (Eastman Kodak Company, priority 1988, dated 1990)

Assays:
Format in all cases: physicochemical
[1] = Spectrophotometric testing: dye hue (λmax and half-bandwidth); details: dye image, density about 1.0, C41 processing
Experimental: (§1) Each coupler of the invention and each comparison coupler was dissolved in half its weight of tricresylphosphate as the coupler solvent using 2-(2-butoxyethoxy)ethyl acetate as the auxiliary solvent. The coupler was dispersed in a gelatin solution and the auxiliary solvent was removed by evaporation under reduced pressure.
(§2) Experimental photographic coatings were prepared by coating a cellulose acetate film support with a photosensitive layer comprising a dispersion of the coupler as formulated above coated at a laydown of 1.04 mmol m^-2, a silver chlorobromide emulsion at 1.61 gm^-2 Ag, gelatin at 2.42 gm^-2 and a hardener at 0.06 gm^-2. An overcoat containing gelatin at 1.5 gm^-2 was applied to the photosensitive layer.
(§3) The dried experimental coating was then slit and chopped into test strips.
(§4) The test strips were exposed through a neutral density step-wedge test object. The strips were then processed through a standard C41 processing cycle as described in the British Journal of Photographic Annual 1977, pages 204-5. The processed strips were then dried to give stepped dye images.
(§5) Test strips were exposed as above through a step-wedge test object and appropriate filters to give to give an optical density of about 1.0. The strips were processed using the standard conditions described above and samples cut from the dye image step with density closest to 1.0. Visible absorption spectra (normalized to 1.0 density) were obtained using a spectrophotometer.
Dye hues are expressed in terms of the wavelength corresponding to the maximum absorption peak (λmax) and the half-bandwidth (HBW) calculated from the spectrophotometric curves.
(§6) In the following Examples, Couplers 1 to 6 are as defined above. Comparison Couplers C-1 to C-6 have the same structures as Couplers 1 to 6, respectively, except that the silyl group is replaced by a hydrogen atom. For example, Coupler C-1 has the structure depicted by Formula I wherein Q=C1 and R=H.

[2] = Solubility of the coupler in di-n-butylphthalate coupler solvent (dye dispersibility)
Text: as §6

[3] = Dye stability testing: dark keeping, dark/wet fade; details: dye image from coupler, dark oven, 60° C., 70% relative humidity, fractional density change at absorption maximum
Experimental: as §1, §2, §3, §4, §5
Dye sample patches having a density of about 1.0 were prepared as for spectrophotometric testing and their absorption spectram measured as above.
[…] The spectrophotometric curves of the samples were then remeasured and the degree of fade quoted as the fractional decrease in density at the absorption maximum relative to the initial density prior to fading. The results are presented as dark/wet fade data.
as §6

| SMILES | HBW (half-bandwidth) of dye absorption [1] | λmax of dye [1] | Solubility ([2]; 80 mg in 0.05 ml di-n-butylphthalate, 1 min on steam bath at 80° C.) | Solubility ([2]; 80 mg in 0.1 ml di-n-butylphthalate, 1 min on steam bath at 80° C.) | Solubility relative to Coupler C-1 ([2]; compared with Coupler C-1 under these conditions (di-n-butylphthalate, steam bath 80° C.)) | Dark/Wet Fade, 1 wk [3] | Dark/Wet Fade, 3 wk [3] | Dark/Wet Fade [3] | Solubility ([2]; 20 mg in 1 ml di-n-butylphthalate, 2 min on steam bath at 80° C.) | Solubility ([2]; 40 mg in 1 ml di-n-butylphthalate, 6 min on steam bath at 80° C.) | Solubility ([2]; 100 mg in 1 ml di-n-butylphthalate, 6 min on steam bath at 80° C.) |
| --- | --- | --- | --- | --- | --- | --- | --- | --- | --- | --- | --- |
| CCCCCCCCCCC(Oc1ccc(S(=O)(=O)c2ccc(O[Si](C)(C)C(C)(C)C)cc2)cc1)C(=O)Nc1ccc(CCCc2n[nH]c3c(Cl)c(C)nn23)cc1 (stereo not drawn) [Coupler 1] | 86.5 nm | 548.5 | soluble | soluble | greater than ten times more soluble | +0.02 | 0.00 | +0.01 |  |  |  |
| CCCCCCCCCCCCC(Oc1ccc(O[Si](C)(C)C(C)(C)C)c(C(C)(C)C)c1)C(=O)Nc1ccc(Cl)c(NC2=NN(c3c(Cl)cc(Cl)cc3Cl)C(=O)C2)c1 (stereo not drawn) [Coupler 3] | 78.5 nm | 539.5 |  |  |  | -0.02 | -0.09 | -0.04 |  |  |  |
| CCCCCCCCCCCCC(Oc1ccc(O)c(C(C)(C)C)c1)C(=O)Nc1ccc(Cl)c(NC2=NN(c3c(Cl)cc(Cl)cc3Cl)C(=O)C2)c1 (stereo not drawn) [Coupler C-3] | 82 nm | 544.5 |  |  |  | -0.04 | -0.09 | -0.08 |  |  |  |
| CCCCCCCCCCC(Oc1ccc(S(=O)(=O)c2ccc(O)cc2)cc1)C(=O)Nc1ccc(Cl)c(NC2=NN(c3c(Cl)cc(Cl)cc3Cl)C(=O)C2)c1 (stereo not drawn) [Coupler C-4] | 92 nm | 545.5 |  |  |  |  |  |  |  |  |  |
| CCCCCCCCCCC(Oc1ccc(S(=O)(=O)c2ccc(O)cc2)cc1)C(=O)Nc1ccc(CCCc2n[nH]c3c(Cl)c(C)nn23)cc1 (stereo not drawn) [Coupler C-1] | 89.5 nm | 553 |  |  |  | +0.07 | +0.06 | +0.05 | soluble | soluble | insoluble |
| CCCCCCCCCCC(Oc1ccc(S(=O)(=O)c2ccc(O[Si](C)(C)C(C)(C)C)cc2)cc1)C(=O)Nc1ccc(Cl)c(NC2=NN(c3c(Cl)cc(Cl)cc3Cl)C(=O)C2)c1 (stereo not drawn) [Coupler 4] | 84.5 nm | 541.5 |  |  |  |  |  |  |  |  |  |
